How the values were obtained:
[1] = test system: MHCC97L and MHCC97H vs. Huh7 and LO2 cells; experiment: XTT assay, viability assay and excess over bliss synergy analysis; assay type: cell-based, human; conditions: CL26 combined with sorafenib, 48 h
Experimental: (§1) Cells (1×10^3 cells/well) were seeded in 96-well plates and cultured in complete medium for 24 h. Subsequently, sorafenib and/or CL26 was added to the culture and incubated for 48 h. The XTT tetrazolium reagent (Gold Biotechnology) and phenazine methosulfate (Thermo Fisher Scientific) were premixed and added to each well. The absorbance at 450 nm was measured using a Victor 3 microplate reader (PerkinElimer). Drug interactions were evaluated using the bliss independence model. According to this model, the expected growth inhibition (Eexp) resulting from the combination of drugs A and B was calculated using the following equation: Eexp=Ea+Eb−Ea×Eb, with Ea representing the growth inhibition caused by drug A alone and Eb representing the growth inhibition caused by drug B alone. To assess drug interactions, the difference between the observed growth inhibition (Eobs) and expected growth inhibition (Eexp) was calculated.
(§2) 1×10^4 cells were seeded in a 6-well plate and cultured in complete medium for 24 h. Subsequently, sorafenib and/or CL26 was added to the culture and incubated for 48 h. Dead cells were carefully washed with PBS, and the remaining viable cells were fixed using 4% paraformaldehyde (Sigma-Aldrich) and visualized by staining with 2% crystal violet (Sigma-Aldrich).

[2] = test system: sorafenib-sensitive and sorafenib-resistant HepG2 cells; experiment: as above; assay type: cell-based, human; conditions: CL26 combined with sorafenib, 48 h
Experimental: as §1, §2

[3] = molecular target: T1, Purified human AGPAT4 protein (Homo sapiens, UniProt Q9NRZ5); experiment: In vitro binding to AGPAT4 by gel-based ABPP (competition with IA-rhodamine); conditions: loss of IA-rhodamine fluorescence
T1 construct: The open reading frame (ORF) encoding the mRNA of AGPAT4 was cloned into pGEX-4T1; made in house; host or cells: Escherichia coli BL21
T1 sequence (Q9NRZ5 1-378): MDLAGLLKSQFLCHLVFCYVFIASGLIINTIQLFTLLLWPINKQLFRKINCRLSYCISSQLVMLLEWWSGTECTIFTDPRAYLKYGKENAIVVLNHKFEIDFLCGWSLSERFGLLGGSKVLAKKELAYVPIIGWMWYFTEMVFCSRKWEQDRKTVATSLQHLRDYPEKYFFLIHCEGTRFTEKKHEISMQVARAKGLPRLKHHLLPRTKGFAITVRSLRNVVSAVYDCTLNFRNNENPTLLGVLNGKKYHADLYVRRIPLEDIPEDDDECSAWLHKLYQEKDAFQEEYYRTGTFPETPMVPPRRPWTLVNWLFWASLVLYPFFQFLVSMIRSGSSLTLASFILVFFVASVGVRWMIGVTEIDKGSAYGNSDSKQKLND
Experimental: Purified human AGPAT4 protein (0.1 μg) was incubated with library compounds at 25 μM (unless indicated) for 1 h at room temperature, followed by incubation with IA-rhodamine (1 μM) for 1 h. Sampling buffer was added and the samples were denatured by boiling at 90° C. The samples were resolved by SDS-PAG E and fluorescence signals were captured using ChemiDoc MP (Bio-Rad) before silver staining to assess protein loading. The band fluorescence intensity was quantified using the ImageJ software.

[4] = Animal toxicity studies; assay type: in vivo, C57BL/6 mice; conditions: 1 mg/kg or 10 mg/kg intraperitoneally
Experimental: C57BL/6 mice were administered CL26 at a low dose (1 mg/kg) or high dose (10 mg/kg) intraperitoneally to evaluate potential tissue damage associated with CL26 exposure. Major organs, including the liver, spleen, pancreas, kidney, heart, and lungs, were weighed prior to fixation in 10% formalin for subsequent paraffin embedding and H& E staining. Additionally, the serum concentrations of alanine aminotransferase (ALT) and aspartate aminotransferase (AST) were measured. The above analysis was performed at the Veterinary Diagnostic Laboratory of the City University of Hong Kong.

[5] = test system: HCC PDX model #1 and sorafenib-resistant HCC PDX model #2
Text: HCC PDX #1 were first expanded in NOD-SCID mice as described previously (21). Sorafenib-resistant HCC PDX #2 was established and expanded as described previously (29). Dissociated PDX tumors (5×10^5 cells in 100% Matrigel) were orthotopically injected into the left lobes of the livers of 6-week-old BA L B/c nude mice (n=6-10 per group). Drug administration was initiated three weeks after inoculation. The mice were then randomized for treatment with DMSO, sorafenib, 30% PET (30% PEG400/15% ethanol/5% Tween 80 in saline), or CL26 (1 mg/kg or 10 mg/kg, delivered intraperitoneally thrice per week). Seven weeks post-inoculation, tumor-bearing mice were sacrificed. The livers were harvested for histological and ex vivo limiting dilution analyses.

[6] = molecular target: T2, AGPAT4 (Homo sapiens, UniProt Q9NRZ5); experiment: Competitive gel-based ABPP in live cells with CL26-alkyne probe; assay type: cell-based; conditions: Huh7 cells stably expressing FLAG-AGPAT4
T2 construct: The open reading frame (ORF) encoding the mRNA of AGPAT4 was cloned into the pDONR-221 donor vector; expressed in transfected cells; host or cells: Huh7
T2 sequence (Q9NRZ5 1-378): T1 sequence (Q9NRZ5 1-378)
Experimental: An in-gel fluorescence assay was performed to investigate the protein targets of CL26. Huh7 cells overexpressing AGPAT4 or cysteine mutants were pre-treated with CL26 at the indicated concentrations for 2 h, followed by CL26-alkyne (1 μM) treatment for another 2 h. Cells were harvested in RIPA buffer supplemented with protease and phosphatase inhibitors (Thermo Fisher Scientific #A32961). The proteins were precipitated by incubation with 6× volume of pre-chilled acetone at −20° C. overnight. Proteins were pelleted by centrifugation at 5000 g for 10 min and resuspended in PBS. The protein content was measured using the BCA assay and normalized to 2 mg/mL. Cell lysates (50 μL) were labelled with azide-fluor 545 by click reaction (final reaction mixture: azide-fluor 545 (25 μM), copper(II) sulfate (1 mM), TBTA (100 μM), and freshly prepared TCEP (1 mM)) at room temperature with constant agitation. After incubation for 1 h, the reaction was quenched with the sampling buffer and boiled at 90° C. for 5 min. Samples were subjected to SDS-PAGE, in-gel fluorescence was captured using ChemiDoc MP (Bio-Rad), and Coomassie Blue staining was performed. Similarly, immunoblotting was used to investigate the protein targets of CL26. Huh7 cells stably transfected with FLAG-AGPAT4 were pre-treated with either the solvent control or CL26 at the indicated concentrations for 2 h, followed by CL26-alkyne (10 μM) treatment for another 2 h. Cells were harvested, and lysates were prepared as described above unless specified. Anti-FLAG M 2 affinity beads were added in FLAG-tag pull-down experiments. After 4 h of incubation at 4° C., the beads were washed with TBS-T and resuspended in TBS-T. Sampling buffer was added and the samples were boiled for protein elution. The samples were subjected to SDS-PAG E and imaged for fluorescence signals before western blot analysis. In the probe pull-down experiment, 1 mL of lysate was labelled with desthiobiotin (DTB)-azide by a click reaction (final reaction mixture: copper(II) sulfate (1 mM), TBTA (100 μM), DTB-PEG-azide (100 μM), and freshly prepared TCEP (1 mM)). […]

[7] = sorafenib orally plus CL26 intraperitoneally

With `O=C(CCl)NCc1ccc(-c2nc3ccccc3s2)o1` [CL26, N-[[5-(2-benzothiazolyl)-2-furanyl]methyl]-2-chloroacetamide] as the compound, how does the “synergistic effect with sorafenib (excess over bliss scores)” value [1] read?
Its value is “synergistic effect was observed solely in cells with high AGPAT4-expressing MHCC97L and MHCC97H cells”.

What about the “synergistic effect with sorafenib” value [2] of the same compound?
Its value is “exclusively observed in sorafenib-resistant HepG2 cells”.

And the IC50 [3]?
The IC50 was 766 nM.

And the “blood chemistry (AST, ALT), major organ weight and histology vs control mice” value [4]?
Its value is “no significant differences”.

What about the “toxicity associated with treatment” value [4] of the same compound?
The value was “minimal toxicity”.

And the “body weight vs control group” value ([5]; PDX mice treated with CL26)?
Its value is “did not exhibit significant differences in body weight”.

What about the “p-mTOR levels, multiplex immunohistochemistry” value ([5]; PDX tumors) of the same compound?
The value was “reduction in p-mTOR levels”.

And the “self-renewal ability, ex vivo limiting dilution analysis” value ([5]; combination with sorafenib)?
Its value is “decreased self-renewal ability”.

And the survival rate ([5]; combination with sorafenib, HCC PDX model #2)?
Its survival rate is “highest survival rate”.

And the “number of tumor nodules” value [5, 7]?
Its value is “significant effect in reducing”.

What about the tumor size [5, 7] of the same compound?
Its tumor size is “significant effect in reducing”.

What about the tumor weight [5, 7] of the same compound?
The tumor weight was “significant effect in reducing”.

And the “in-gel fluorescence of CL26-alkyne-bound AGPAT4 upon CL26 pre-treatment (target engagement)” value [6]?
The value was “significant decrease in fluorescence intensity”.
